Results published in patent US20150306169A1, “METHOD AND COMPOSITIONS FOR SYNCHRONIZING TIME OF INSEMINATION IN GILTS” (JBS UNITED ANIMAL HEALTH II LLC, priority 2012, published 2015).

How the values were obtained:
Type in all cases: in vivo, swine
gilts [1] = assay: Ovulation monitoring by transrectal ultrasonography, triptorelin gel dose 100-400 mcg at 120 h post-MATRIX (Example 5); settings: for % of Sows Ovulating: raw average, PTK 2-07
Procedure: (§1) All gilts were individually fed MATRIX® as a top-dress for 14 or 15 days at the recommended rate of 15 mg/gilt/day. Gilts were withdrawn from MATRIX® feeding (last top-dress in the morning on Day 0) and allocated to each of the following treatments. Controls were vehicle gel treated (vehicle gel without triptorelin) at 120 (+/−2) hours following MATRIX® withdrawal (last top dress). The other gilts were given 100, 200 or 400 mcg triptorelin as the acetate in a methylcellulose gel formulation 120 (+/−2) hours following MATRIX® withdrawal. The four treatments were: • 1. Vehicle gel (VG): vehicle gel without triptorelin at 120 (+/−2) hours after MATRIX® withdrawal. • 2. TG 100: 100 mcg (2 mL 50 mcg/mL) triptorelin gel at 120 (+/−2) hours after MATRIX® withdrawal. • 3. TG 200: 200 mcg (2 mL 100 mcg/mL) triptorelin gel at 120 (+/−2) hours after MATRIX® withdrawal. • 4. TG 400: 400 mcg (2 mL 200 mcg/mL) triptorelin gel at 120 (+/−2) hours after MATRIX® withdrawal.
Ovulation was monitored twice on Day 5 (8 hours and 16 hours post-treatment) and every 8 hours on Day 6 and Day 7 or until ovulation was confirmed or 176 hours following last MATRIX® feeding. The ovulatory status of all gilts was monitored by transrectal ultrasonography. An Aloka 500 ultrasound machine is used for this purpose, with a 7.5 MHz linear array transducer attached to a fixed-angle PVC stabilizing rod to facilitate insertion into the rectum. The transducer and PVC rod are coated with a gynecological lubricant and gently inserted into the rectum until the ovaries can be visualized, one at a time. The diameters of the three largest follicles were recorded (to the nearest 0.1 mm) at each scanning. A gilt was declared to have ovulated when the number of large follicles (≧6.5 mm) fell to less than 3.
(§2) A single 2 mL dose of triptorelin gel or vehicle gel was deposited within approximately 1-2 cm posterior to the cervix with a catheter similar to those used for artificial insemination. The dose was delivered using a standard multi-dose applicator attached to the catheter. A new disposable sheath, which surrounds the catheter, was used for each gilt.

gilts [2] = assay: Ovulation monitoring by transrectal ultrasonography after triptorelin gel at 96, 120 or 144 h post-MATRIX (Example 1); settings: raw average, PTK 1-07 (rep 3), 200 mcg T at 120 h post-MATRIX
Procedure: All gilts were individually fed MATRIX® as a top-dress for 14 days at the recommended rate of 15 mg/gilt/day. Gilts were withdrawn from MATRIX® feeding (last top feed in the morning on Day 0) and allotted to treatments. Controls were treated with a 1.2% methylcellulose gel formulation without triptorelin at 96 hours following MATRIX® withdrawal (last top-dress). The remaining gilts received 200 mcg triptorelin, as the acetate, in a 1.2% methylcellulose gel formulation intravaginally at various times after MATRIX® withdrawal. The four treatments were: 1) vehicle gel (VG) treatment at 96 hours after MATRIX® withdrawal, 2) triptorelin gel (TG) treatment at 96 hours after MATRIX® withdrawal, 3) TG treatment at 120 hours after MATRIX® withdrawal and 4) TG treatment at 144 hours after MATRIX® withdrawal. All gilts were monitored for their estrous and ovulatory status as described below. Gilts included in replicate 1 were selected from terminal line commercial production gilts located in grow/finish barns. Sexual maturity, as indicated by one or more estrous periods, was not verified prior to the start of MATRIX® feeding. Gilts included in replicate 2 were selected from a maternal line gilt population. Sexual maturity was verified by at least one estrous period verified and recorded prior to starting MATRIX® feeding.
The ovulatory status of all gilts was monitored by transrectal ultrasonography. For replicate one, ovulation was monitored two times on Day 5, then three times a day from Day 6 to Day 8. For replicate two, ovulation was monitored three times a day from Day 5 to Day 8. An Aloka 500 ultrasound machine with a 7.5 MHz linear array transducer attached to a fixed-angle PVC stabilizing rod to facilitate insertion into the rectum was used for this purpose. The transducer and PVC rod were coated with a gynecological lubricant and gently inserted into the rectum until the ovaries were visualized, one at a time. The diameters of the three largest follicles were recorded (to the nearest 0.1 mm) at each scanning. A gilt was declared to have ovulated when the number of large follicles (≧6.5 mm) fell to less than 3.
as §2
Data were analyzed using the Mixed Models procedures of SAS. Models included main effects of time of treatment following the last feeding of MATRIX®, replicate, and treatment by replicate interaction. Differences between treatments were tested on least squares means estimates using the T test at P <0.05. Data for analysis were tested for assumptions of data normality.

gilts [3] = assay: Estrus observation after triptorelin gel (Example 1); settings: raw average, PTK 1-07 (rep 3); 200 mcg T at 120 h post-MATRIX
Procedure: All gilts were individually fed MATRIX® as a top-dress for 14 days at the recommended rate of 15 mg/gilt/day. Gilts were withdrawn from MATRIX® feeding (last top feed in the morning on Day 0) and allotted to treatments. Controls were treated with a 1.2% methylcellulose gel formulation without triptorelin at 96 hours following MATRIX® withdrawal (last top-dress). The remaining gilts received 200 mcg triptorelin, as the acetate, in a 1.2% methylcellulose gel formulation intravaginally at various times after MATRIX® withdrawal. The four treatments were: 1) vehicle gel (VG) treatment at 96 hours after MATRIX® withdrawal, 2) triptorelin gel (TG) treatment at 96 hours after MATRIX® withdrawal, 3) TG treatment at 120 hours after MATRIX® withdrawal and 4) TG treatment at 144 hours after MATRIX® withdrawal. All gilts were monitored for their estrous and ovulatory status as described below. Gilts included in replicate 1 were selected from terminal line commercial production gilts located in grow/finish barns. Sexual maturity, as indicated by one or more estrous periods, was not verified prior to the start of MATRIX® feeding. Gilts included in replicate 2 were selected from a maternal line gilt population. Sexual maturity was verified by at least one estrous period verified and recorded prior to starting MATRIX® feeding. […]
Data were analyzed using the Mixed Models procedures of SAS. […]

gilts [4] = assay: Estrus observation, triptorelin gel dose study (Example 5); settings: raw average, PTK 2-07
Procedure: as §1
For post-treatment estrus detection, gilts were housed in individual pens. Boars were housed in separate rooms, and/or at least 12 m away and downwind. To elicit signs of estrus, a mature boar was walked slowly in the alley in front of the gilts' crates, exposing each test gilt to visual, auditory and olfactory signals from the boar for up to 5 minutes. […]

LH = assay: Serum LH surge after triptorelin gel (Example 5)
Procedure: A catheter was inserted non-surgically into the jugular vein (Kraeling et al. 1982) of a subpopulation of gilts in each treatment group (vehicle gel, n=8; 100 mcg triptorelin, n=6; 200 mcg triptorelin, n=7 and 400 mcg triptorelin, n=6). Ten mL blood samples were collected every 15 minutes for one hour prior to treatment, immediately following treatment (0) and at 0.5, 1, 2, 4, 6, 12, 18, 24, 36 and 48 hours after treatment. Blood samples were maintained at 4° C. until centrifuged at 800 x g for 15 minutes within 12 hours of collection. The resulting serum was stored frozen until assayed for LH using validated procedures for pig serum (Kesner et al., 1987 and Kraeling et al., 1982). Onset, duration, and magnitude of the LH surge were analyzed. The LH data were analyzed with the General Linear Models procedure of SAS. Differences between treatments were tested on least squares means estimates using the T test at P<0.05. Onset of the LH surge is when serum LH concentration is greater than or equal to two standard deviations of the mean of the pre-treatment serum LH concentrations. Duration of the LH surge is the period between onset and when serum LH concentration is again less than or equal to two standard deviations of the mean of the pre-treatment serum LH concentrations. Magnitude of the LH surge is the maximum serum LH concentration reached during the LH surge.

[5] = 200 mcg T in gel at 120 h post-MATRIX, relative to time of treatment, one gilt with surge

In the case of `CC(C)C[C@H](NC(=O)[C@@H](Cc1c[nH]c2ccccc12)NC(=O)[C@H](Cc1ccc(O)cc1)NC(=O)[C@H](CO)NC(=O)[C@H](Cc1c[nH]c2ccccc12)NC(=O)[C@H](Cc1c[nH]cn1)NC(=O)[C@@H]1CCC(=O)N1)C(=O)N[C@@H](CCCNC(=N)N)C(=O)N1CCC[C@H]1C(=O)NCC(N)=O` [T, pGlu-His-Trp-Ser-Tyr-D-Trp-Leu-Arg-Pro-Gly-NH2], the “Percentage ovulated by 48 hours” value (gilts [1]; 100 mcg T in gel at 120 h post-MATRIX, catheterized subpopulation n = 6) is reported as 100%, the “Percentage ovulated by 48 hours” value (gilts [1]; 200 mcg T in gel at 120 h post-MATRIX, catheterized subpopulation n = 7) is reported as 100% and the “Percentage ovulated by 48 hours” value (gilts [1]; 400 mcg T in gel at 120 h post-MATRIX, catheterized subpopulation n = 6) is reported as 100%. For the same molecule, the “% of Sows Ovulating” value (gilts [1]; 100 mcg T at 120 h post-MATRIX, 128 h post-MATRIX (8 h post-T)) was 0.0%, the “% of Sows Ovulating” value (gilts [1]; 100 mcg T at 120 h post-MATRIX, 136 h post-MATRIX (16 h post-T)) was 5.0% and the “% of Sows Ovulating” value (gilts [1]; 100 mcg T at 120 h post-MATRIX, 144 h post-MATRIX (24 h post-T)) was 20.0%. For the same molecule, the “% of Sows Ovulating” value (gilts [1]; 100 mcg T at 120 h post-MATRIX, 152 h post-MATRIX (32 h post-T)) was 30.0%, the “% of Sows Ovulating” value (gilts [1]; 100 mcg T at 120 h post-MATRIX, 160 h post-MATRIX (40 h post-T)) was 60.0% and the “% of Sows Ovulating” value (gilts [1]; 100 mcg T at 120 h post-MATRIX, 168 h post-MATRIX (48 h post-T)) was 95.0%. For the same molecule, the “% of Sows Ovulating” value (gilts [1]; 100 mcg T at 120 h post-MATRIX, 176 h post-MATRIX (56 h post-T)) was 100.0%, the “% of Sows Ovulating” value (gilts [1]; 200 mcg T at 120 h post-MATRIX, 128 h post-MATRIX (8 h post-T)) was 0.0% and the “% of Sows Ovulating” value (gilts [1]; 200 mcg T at 120 h post-MATRIX, 136 h post-MATRIX (16 h post-T)) was 0.0%. For the same molecule, the “% of Sows Ovulating” value (gilts [1]; 400 mcg T at 120 h post-MATRIX, 128 h post-MATRIX (8 h post-T)) was 4.5%, the “% of Sows Ovulating” value (gilts [1]; 400 mcg T at 120 h post-MATRIX, 136 h post-MATRIX (16 h post-T)) was 9.1% and the “% of Sows Ovulating” value (gilts [1]; 400 mcg T at 120 h post-MATRIX, 168 h post-MATRIX (48 h post-T)) was 100.0%. The “% of Sows Ovulating” value (gilts [1]; 400 mcg T at 120 h post-MATRIX, 176 h post-MATRIX (56 h post-T)) was 100.0%, the “% of Sows Ovulating” value (gilts [2]; 128 h post-MATRIX (8 h post-T)) was 0.0% and the “% of Sows Ovulating” value (gilts [2]; 136 h post-MATRIX (16 h post-T)) was 10.0%. For the same molecule, the “% of Sows Ovulating” value (gilts [2]; 144 h post-MATRIX (24 h post-T)) was 30.0%, the “% of Sows Ovulating” value (gilts [2]; 152 h post-MATRIX (32 h post-T)) was 70.0% and the “% of Sows Ovulating” value (gilts [2]; 160 h post-MATRIX (40 h post-T)) was 80.0%. The “% of Sows Ovulating” value (gilts [2]; 168 h post-MATRIX (48 h post-T)) was 90.0%, the “% of Sows Ovulating” value (gilts [2]; 176 h post-MATRIX (56 h post-T)) was 100.0% and the “Estrous Expression (%)” value (gilts [3]) was 100.0%. The “Estrous Expression (%)” value (gilts [4]; 100 mcg T at 120 h post-MATRIX) was 75.0%, the “Estrous Expression (%)” value (gilts [4]; 200 mcg T at 120 h post-MATRIX) was 81.0% and the “Gilts, which displayed a LH surge” value (LH; 100 mcg T in gel at 120 h post-MATRIX, number of n = 6 catheterized gilts) was 4. The “Onset of LH surge” value (LH; 100 mcg T in gel at 120 h post-MATRIX, relative to time of treatment, LS mean ± SE) was 4 ± 3, the “Gilts, which displayed a LH surge” value (LH; 200 mcg T in gel at 120 h post-MATRIX, number of n = 7 catheterized gilts) was 1 and the “Duration of LH surge” value (LH; 200 mcg T in gel at 120 h post-MATRIX, one gilt with surge) was 18. The “Onset of LH surge” value (LH; [5]) was 0.5, the Time of maximum LH conc. (LH; [5]) was 4 h and the “Gilts, which displayed a LH surge” value (LH; 400 mcg T in gel at 120 h post-MATRIX, number of n = 6 catheterized gilts) was 5. The “Onset of LH surge” value (LH; 400 mcg T in gel at 120 h post-MATRIX, relative to time of treatment, LS mean ± SE) was 4 ± 4.
